{
  "source": "patent US20100092398A1",
  "about": "“ANTIMICROBIAL COMPOSITIONS AND APPLICATIONS THEREFORE” (priority 2004, published 2010)",
  "origin": "cited, not measured here",
  "conditions": "range given for terpinen-4-ol",
  "data": [
    {"smiles": "CC1=CCC(O)(C(C)C)CC1", "note": "(stereo not shown) [terpinen-4-ol]", "values": [
      {"measurement": "Relative density @ 20° C.", "value": "0.930 to 0.936", "unit": "g/mL"}
    ]}
  ]
}
